{"source": "ChEMBL document CHEMBL3797201", "about": "“Synthesis of N-1', N-3'-disubstituted spirohydantoins and their anticonvulsant activities in pilocarpine model of temporal lobe epilepsy” (Bioorg Med Chem Lett, 2016)", "key": {"[1]": {"tested_on": "Rattus norvegicus", "assay": "Toxicity in pilocarpine-induced status epilepticus Sprague-Dawley rat model assessed as sedation at 100 mg/kg, ip administered 2 hrs prior to pilocarpine challenge", "format": "organism-based", "conditions": "in vivo"}, "[2]": {"tested_on": "Rattus norvegicus", "assay": "Toxicity in pilocarpine-induced status epilepticus Sprague-Dawley rat model assessed as loss of righting reflex at 100 mg/kg, ip administered 2 hrs prior to pilocarpine challenge measured within 10 mins and upto 4 hrs", "format": "organism-based", "conditions": "in vivo"}, "[3]": {"tested_on": "Rattus norvegicus", "assay": "Anticonvulsant activity in pilocarpine-induced status epilepticus Sprague-Dawley rat model assessed as motor seizure onset time at 100 mg/kg, ip administered 2 hrs prior to pilocarpine challenge (reference value: 6 mins)", "format": "functional"}, "[4]": {"tested_on": "Rattus norvegicus", "assay": "Anticonvulsant activity in pilocarpine-induced status epilepticus Sprague-Dawley rat model assessed as delay in motor seizure onset time at 100 mg/kg, ip administered 2 hrs prior to pilocarpine challenge", "format": "functional, organism-based"}, "[5]": {"tested_on": "Rattus norvegicus", "assay": "Anticonvulsant activity in pilocarpine-induced status epilepticus Sprague-Dawley rat model at 100 mg/kg, ip administered 2 hrs prior to pilocarpine challenge", "format": "functional, organism-based"}, "[6]": {"tested_on": "Rattus norvegicus", "assay": "Anticonvulsant activity in pilocarpine-induced status epilepticus Sprague-Dawley rat model assessed as recovered from seizure within 90 to 120 mins at 100 mg/kg, ip administered 2 hrs prior to pilocarpine challenge", "format": "functional, organism-based"}, "[7]": {"tested_on": "Rattus norvegicus", "assay": "Anticonvulsant activity in pilocarpine-induced status epilepticus Sprague-Dawley rat model assessed as decrease in progression of motor seizure at 100 mg/kg, ip administered 2 hrs prior to pilocarpine challenge", "format": "functional, organism-based"}, "[8]": {"tested_on": "Rattus norvegicus", "assay": "Anticonvulsant activity in pilocarpine-induced status epilepticus Sprague-Dawley rat model assessed as recovered from pre-stage of motor seizue within 30 mins at 100 mg/kg, ip administered 2 hrs prior to pilocarpine challenge", "format": "functional, organism-based"}, "[9]": {"tested_on": "Rattus norvegicus", "assay": "Anticonvulsant activity in pilocarpine-induced status epilepticus Sprague-Dawley rat model assessed as survival rate at 100 mg/kg, ip administered 2 hrs prior to pilocarpine challenge (reference value: 53%)", "format": "functional"}}, "note": "Active and inactive are the calls of the source. No cut-off for these calls is given here."}
{"molecule": "O=C1OC2(C(=O)N(c3ccccc3)C(=O)N2c2ccccc2)c2ccccc21", "note": "(racemic)", "values": [{"measurement": "Activity", "setting": "[1]", "result": "Toxic"}, {"measurement": "Activity", "setting": "[2]", "result": "Toxic"}]}
{"molecule": "CCCN1C(=O)N(c2ccccc2)C(=O)C12OC(=O)c1ccccc12", "note": "(racemic)", "values": [{"measurement": "Activity", "setting": "[1]", "result": "Toxic"}, {"measurement": "Activity", "setting": "[2]", "result": "Toxic"}]}
{"molecule": "O=C1OC2(C(=O)N(c3ccc([N+](=O)[O-])cc3)C(=O)N2c2ccccc2)c2ccccc21", "note": "(racemic)", "values": [{"measurement": "Time", "setting": "[3]", "result": 104, "unit": "min"}]}
{"molecule": "O=C1OC2(C(=O)N(c3ccccc3)C(=O)N2C2CC2)c2ccccc21", "note": "(racemic)", "values": [{"measurement": "Activity", "setting": "[1]", "result": "Toxic"}, {"measurement": "Activity", "setting": "[2]", "result": "Toxic"}]}
{"molecule": "CCCN1C(=O)N(c2ccc(CC)cc2)C(=O)C12OC(=O)c1ccccc12", "note": "(racemic)", "values": [{"measurement": "Activity", "setting": "[4]", "result": "Active"}]}
{"molecule": "CCCN1C(=O)N(c2ccc(Cl)cc2)C(=O)C12OC(=O)c1ccccc12", "note": "(racemic)", "values": [{"measurement": "Activity", "setting": "[5]", "result": "Active"}]}
{"molecule": "CCCN1C(=O)N(c2ccc([N+](=O)[O-])cc2)C(=O)C12OC(=O)c1ccccc12", "note": "(racemic)", "values": [{"measurement": "Activity", "setting": "[4]", "result": "Active"}, {"measurement": "Activity", "setting": "[5]", "result": "Active"}, {"measurement": "Activity", "setting": "[6]", "result": "Active"}]}
{"molecule": "CCCN1C(=O)N(c2ccccc2CC)C(=O)C12OC(=O)c1ccccc12", "note": "(racemic)", "values": [{"measurement": "Activity", "setting": "[5]", "result": "Active"}]}
{"molecule": "CCN1C(=O)N(c2ccc(OC)cc2OC)C(=O)C12OC(=O)c1ccccc12", "note": "(racemic)", "values": [{"measurement": "Activity", "setting": "[7]", "result": "Active"}, {"measurement": "Activity", "setting": "[4]", "result": "Active"}, {"measurement": "Activity", "setting": "[5]", "result": "Active"}, {"measurement": "Activity", "setting": "[6]", "result": "Active"}, {"measurement": "Activity", "setting": "[8]", "result": "Active"}]}
{"molecule": "CCN1C(=O)N(c2ccc([N+](=O)[O-])cc2)C(=O)C12OC(=O)c1ccccc12", "note": "(racemic)", "values": [{"measurement": "Activity", "setting": "[5]", "result": "Active"}, {"measurement": "Activity", "setting": "[6]", "result": "Active"}]}
{"molecule": "CCc1ccc(N2C(=O)N(C3CC3)C3(OC(=O)c4ccccc43)C2=O)cc1", "note": "(racemic)", "values": [{"measurement": "Activity", "setting": "[4]", "result": "Active"}]}
{"molecule": "CCc1cccc(CC)c1N1C(=O)N(CC)C2(OC(=O)c3ccccc32)C1=O", "note": "(racemic)", "values": [{"measurement": "Activity", "setting": "[5]", "result": "Active"}]}
{"molecule": "O=C1OC2(C(=O)N(c3ccc(Cl)cc3)C(=O)N2C2CC2)c2ccccc21", "note": "(racemic)", "values": [{"measurement": "Activity", "setting": "[5]", "result": "Active"}]}
{"molecule": "O=C1OC2(C(=O)N(c3ccc(Cl)cc3)C(=O)N2c2ccccc2)c2ccccc21", "note": "(racemic)", "values": [{"measurement": "Activity", "setting": "[4]", "result": "Active"}]}
{"molecule": "O=C1OC2(C(=O)N(c3ccc([N+](=O)[O-])cc3)C(=O)N2C2CC2)c2ccccc21", "note": "(racemic)", "values": [{"measurement": "Activity", "setting": "[5]", "result": "Active"}, {"measurement": "Activity", "setting": "[6]", "result": "Active"}]}
{"molecule": "O=C1NC(=O)C(c2ccccc2)(c2ccccc2)N1", "note": "[PHENYTOIN]", "values": [{"measurement": "Time", "setting": "[3]", "result": 12, "unit": "min"}, {"measurement": "survival at 100 mg/kg", "setting": "[9]", "result": 67, "unit": "%"}]}
